The results in this text go back to patent publication US20240360194A1, “New Peptides as Potent and Selective GIP Receptor Agonists” (Sanofi, priority 2021, published 2024).

Each structure is given as a SMILES string. Converted amounts (≈) assume the structure as drawn. Numbered stars: 1 amine (or outer) side, 2 acyl side, 3 side chain; on linkers, the order of the positions; unused ones are H or OH. Square brackets hold non-standard residues; d marks the D form. Side chains are listed from the residue outwards. Peptide text beside a SMILES is read from it. * marks the point of attachment. C18 diacid = O=C(O)CCCCCCCCCCCCCCCCC(=O)*; γGlu = O=C(O)[C@H](CCC(=O)[*:2])N[*:1]; dIva = CC[C@@](C)(N)C(=O)O; AEEA = NCCOCCOCC(=O)O; Aib = CC(C)(N)C(=O)O

A short description of data set [1]: Chemical stability assessment (UHPLC-UV purity loss on storage in solution). In kind it is physicochemical. Particulars: Chemical stability buffer system A: 20 mM phosphate buffer pH 7.4; ~300 μM. As to the method: Purity of a peptide batch was determined through UHPLC/MS prior to chemical stability measurement. The target concentration was 300 μM pure compound. Solutions from solid samples were prepared in the following buffer systems with a concentration of ˜300 μM compound based on the previously determined % purity: • Chemical stability buffer system A) 20 mM phosphate buffer pH 7.4, • Chemical stability buffer system B) 8 mM phosphate buffer pH 7.4, 14 mg/ml propylene glycol, 5.5 mg/ml phenol • Chemical stability buffer system C) 100 mM phosphate buffer pH 7.4, 2.7 mg/ml m-cresol
Prepared solutions were filtered through […] pore size and filled into sterilized glass containers under laminar flow conditions.
Glass containers were stored for 28 days at 5 and 40° C. After this time, the samples were centrifuged for 15 min at 2500 RCF. Then 1.5 μl of the undiluted supernatant were analysed with UHPLC-UV.
The chemical stability was rated through the relative loss of purity calculated by the equation: […]
The purity is calculated as
The analytical methods used were Analytical UHPLC Method B or C.
Peptide samples were prepared in Chemical stability buffer system A or B and stability was assessed as described in Methods.

The nature of data set [2]: Solubility assessment (UHPLC-UV of supernatant, target 10 mg/ml). In kind it is physicochemical. The gist of the method: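 Peptides at 10 mg/ml (purity-corrected) in 100 mM phosphate pH 7.4, optionally with 2.7 mg/ml m-cresol; gentle agitation 1 h, then 5° C. overnight (24 h). Supernatant after 15 min centrifugation at 2500 RCF quantified by UHPLC-UV, with sequence-based extinction coefficients.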

Data set [3] deals with human GLP-1 receptor (hGLP-1R) (Homo sapiens, UniProt P43220). The data set can be described thus: In vitro cellular cAMP assay for GLP-1 receptor efficacy (HEK-293 cell line over-expressing receptor). In kind it is cell-based. To be noted: HEK-293, 0.1% BSA. On the technique in general: Cyclic AMP is a second messenger, typically raised through Gs and lowered through Gi signalling.
Sequence of human GLP-1 receptor (hGLP-1R) (P43220 24-463): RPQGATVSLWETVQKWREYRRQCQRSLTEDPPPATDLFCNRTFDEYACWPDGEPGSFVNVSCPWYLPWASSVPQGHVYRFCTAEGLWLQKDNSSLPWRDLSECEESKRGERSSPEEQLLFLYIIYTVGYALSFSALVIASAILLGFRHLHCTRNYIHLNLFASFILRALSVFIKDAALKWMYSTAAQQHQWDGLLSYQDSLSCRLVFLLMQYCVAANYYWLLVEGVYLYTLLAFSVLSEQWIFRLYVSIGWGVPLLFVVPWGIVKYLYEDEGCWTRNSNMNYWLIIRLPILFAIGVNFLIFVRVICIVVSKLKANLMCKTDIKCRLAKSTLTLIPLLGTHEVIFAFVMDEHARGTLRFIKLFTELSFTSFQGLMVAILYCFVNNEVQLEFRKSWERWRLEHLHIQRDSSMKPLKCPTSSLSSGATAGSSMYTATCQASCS

As for `CC[C@H](C)[C@H](NC(=O)[C@H](CCCNC(=N)N)NC(=O)[C@H](CC(=O)O)NC(=O)[C@H](CCCCNC(=O)COCCOCCNC(=O)COCCOCCNC(=O)CC[C@H](NC(=O)CCCCCCCCCCCCCCCCC(=O)O)C(=O)O)NC(=O)C(C)(C)NC(=O)[C@@H](NC(=O)[C@H](CO)NC(=O)[C@H](CC(C)C)NC(=O)[C@H](CC(=O)O)NC(=O)[C@H](CO)NC(=O)[C@@H](NC(=O)[C@H](Cc1ccccc1)NC(=O)[C@@H](NC(=O)CNC(=O)[C@H](CCC(=O)O)NC(=O)C(C)(C)NC(=O)[C@@H](N)Cc1ccc(O)cc1)[C@@H](C)O)[C@@H](C)CC)[C@@H](C)CC)C(=O)N[C@@H](Cc1c[nH]cn1)C(=O)N[C@@H](CCC(N)=O)C(=O)NC(C)(C)C(=O)N[C@@H](CCC(=O)O)C(=O)N[C@@H](Cc1ccccc1)C(=O)N[C@H](C(=O)N[C@@H](CCC(=O)O)C(=O)N[C@@H](Cc1c[nH]c2ccccc12)C(=O)N[C@](C)(CC)C(=O)N[C@@H](CC(C)C)C(=O)N[C@@H](C)C(=O)N[C@@H](CCC(N)=O)C(=O)NCC(=O)N1CCC[C@H]1C(=O)N[C@@H](CO)C(=O)N[C@@H](CO)C(=O)NCC(=O)N[C@@H](C)C(=O)N1CCC[C@H]1C(=O)N1CCC[C@H]1C(=O)N1CCC[C@H]1C(=O)N[C@@H](CO)C(N)=O)[C@@H](C)CC` [SEQ ID NO: 31, H2N-Y-Aib-E-G-T-F-I-S-D-L-S-I-Aib-K[{AEEA}2-gGlu-C18OH]-D-R-I-H-Q-Aib-E-F-I-E-W-Iva-L-A-Q-G-P-S-S-G-A-P-P-P-S-NH2] (H-Y[Aib]EGTFISDLSI[Aib]K([AEEA-AEEA-γGlu-C18 diacid])DRIHQ[Aib]EFIEW[dIva]LAQGPSSGAPPPS-NH2), the “Relative purity loss over 28 days at 40° C.” value in data set [1] was 6.2%. For the same compound, in data set [2] (pH 7.4), the Soluble amount worked out at 9.6 mg/mL. Moreover, in data set [2] (pH 7.4, Soluble amount), the solubility – broadly, the concentration that dissolves in the medium under given conditions – is more than 10000 µg/mL. Moreover, the EC50 – broadly, the midpoint of the concentration-response curve – in data set [3] was more than 10 nM.

As to `CC[C@H](C)[C@H](NC(=O)[C@H](CCCNC(=N)N)NC(=O)[C@H](CC(=O)O)NC(=O)[C@H](CC(C)C)NC(=O)C(C)(C)NC(=O)[C@@H](NC(=O)[C@H](CO)NC(=O)[C@H](CC(C)C)NC(=O)[C@H](CC(=O)O)NC(=O)[C@H](CO)NC(=O)[C@@H](NC(=O)[C@H](Cc1ccccc1)NC(=O)[C@@H](NC(=O)CNC(=O)[C@H](CCC(=O)O)NC(=O)C(C)(C)NC(=O)[C@@H](N)Cc1ccc(O)cc1)[C@@H](C)O)[C@@H](C)CC)[C@@H](C)CC)C(=O)N[C@@H](CCCCNC(=O)COCCOCCNC(=O)COCCOCCNC(=O)CC[C@H](NC(=O)CCCCCCCCCCCCCCCCC(=O)O)C(=O)O)C(=O)N[C@@H](CCC(N)=O)C(=O)NC(C)(C)C(=O)N[C@@H](CCC(=O)O)C(=O)N[C@@H](Cc1ccccc1)C(=O)N[C@H](C(=O)N[C@@H](CCC(=O)O)C(=O)N[C@@H](Cc1c[nH]c2ccccc12)C(=O)N[C@@H](CC(C)C)C(=O)N[C@@H](CC(C)C)C(=O)N[C@@H](C)C(=O)N[C@@H](CCC(N)=O)C(=O)NCC(=O)N1CCC[C@H]1C(=O)N[C@@H](CO)C(=O)N[C@@H](CO)C(=O)NCC(=O)N[C@@H](C)C(=O)N1CCC[C@H]1C(=O)N1CCC[C@H]1C(=O)N1CCC[C@H]1C(=O)N[C@@H](CO)C(N)=O)[C@@H](C)CC` [SEQ ID NO: 37, H2N-Y-Aib-E-G-T-F-I-S-D-L-S-I-Aib-L-D-R-I-K[{AEEA}2-gGlu-C18OH]-Q-Aib-E-F-I-E-W-L-L-A-Q-G-P-S-S-G-A-P-P-P-S-NH2] (H-Y[Aib]EGTFISDLSI[Aib]LDRIK([AEEA-AEEA-γGlu-C18 diacid])Q[Aib]EFIEWLLAQGPSSGAPPPS-NH2), the “Relative purity loss over 28 days at 40° C.” value in data set [1] is given as 5.3%. The solubility at 24 h in data set [2] (pH 7.4, Soluble amount) was determined as 8600 µg/mL (≈ 1740 µM). Besides, the EC50 in data set [3] was more than 10 nM.
